These results are taken from publication PMC5108039, “Functional and Structural Characterization of a Novel HLA-DRB1*04:01-Restricted α-Enolase T Cell Epitope in Rheumatoid Arthritis” (Frontiers in Immunology, 2016).

A word on the IC50: it is the concentration at which inhibition is half-maximal.

For assay [1], the target named is HLA-DRB1*04:04 (Homo sapiens, UniProt P01903+P01911, A100R/A169T/F76Y/I96L/K127E/L162R/M171V/N62H/P40V/Q125Y/R42H/S133A/S149N/S66Y/V209L/W38E). In words: Competition peptide-binding assay, HLA-DRB1*04:04. Particulars: competition with 0.02 μM biotinylated GAD65 270–285, plate-bound HLA-DRB1*04:04, increasing peptide concentrations; read-out: IC50 *04:04. How it is done: Stepwise binding analysis of 15-mer peptides derived from both native and citrullinated α-enolase to HLA-DRB1*01, *04:01, and *04:04 was performed using the ProImmune Class II Reveal assay (ProImmune, Oxford, UK). Relevant peptides were thereafter synthesized by GenScript (Piscataway, NJ, USA) and used for competition peptide-binding assays. […] Finally, peptide-binding affinity to the three different HLA alleles was assessed in direct binding assays in which N-terminally biotinylated epitopes (GenScript, Piscataway, NJ, USA) were incubated at concentrations from 5 to 0.05 μM with plate-bound relevant HLA-DRB1 molecules in the absence of a competitor peptide ([22]). The inflection point of the binding curve of a known binding epitope was used as a cutoff to separate weakly binding epitopes from background. […]

In assay [2] the target is HLA-DRB1*01:01 (Homo sapiens, UniProt P01903+P01911, A100R/D57E/F55L/F60I/F76Y/I96L/L162R/M171V/P40L/Q125E/R42F/V115G/Y59C). As to the kind of experiment: Competition peptide-binding assay, HLA-DRB1*01:01. Particulars: competition with 0.02 μM biotinylated HA306–318, plate-bound HLA-DRB1*01:01, increasing peptide concentrations; read-out: IC50 *01:01. On the procedure: Stepwise binding analysis of 15-mer peptides derived from both native and citrullinated α-enolase to HLA-DRB1*01, *04:01, and *04:04 was performed using the ProImmune Class II Reveal assay (ProImmune, Oxford, UK). Relevant peptides were thereafter synthesized by GenScript (Piscataway, NJ, USA) and used for competition peptide-binding assays. […] Finally, peptide-binding affinity to the three different HLA alleles was assessed in direct binding assays in which N-terminally biotinylated epitopes (GenScript, Piscataway, NJ, USA) were incubated at concentrations from 5 to 0.05 μM with plate-bound relevant HLA-DRB1 molecules in the absence of a competitor peptide ([22]). The inflection point of the binding curve of a known binding epitope was used as a cutoff to separate weakly binding epitopes from background.
We decided to make use of HLA-DRB1*01:01 as a representative model for HLA-DRB1*01.

Assay [3] deals with cultured PBMCs from RA patients. In words: Bead-based multiplex cytokine assay in culture supernatants. The class given is cell-based, human. Particulars: supernatants of cultured PBMCs, day 5, Luminex panel IL-10, IL-13, IL-17A, IL-17F, TNF-α, IFN-γ. On the procedure: A bead-based multiplex cytokine assay was custom-designed by Invitrogen for simultaneous detection of IL-10, IL-13, IL-17A, IL-17F, TNF-α, and IFN-γ on a Luminex platform. Supernatants were collected at day 5 and stored at −80°C until used. Supernatants from RA patients were analyzed using the Luminex 100 system according to the manufacturer’s instructions.

The target of assay [4] is HLA-DRB1*04:01 (Homo sapiens, UniProt P01903+P01911, A100K/A169T/F76Y/I96L/K127E/L162R/M171V/N62H/P40V/Q125Y/R42H/S133A/S149N/S66Y/V115G/V209L/W38E). As to the kind of experiment: biochemical.
Protocol: The HLA-DR binding capacity of the identified peptides was assessed through in vitro competition binding assays in which native and citrullinated candidate epitopes were tested for their capacity to displace an established reference peptide (Figure 2; Table 2).

Square brackets hold non-standard residues; d marks the D form. Peptide text beside a SMILES is read from it. Cit = NC(=O)NCCC[C@H](N)C(=O)O A value given as a limit tells only on which side of the number the result lay.

With `CC[C@H](C)[C@H](NC(=O)[C@H](Cc1c[nH]cn1)NC(=O)[C@H](CCC(=O)O)NC(=O)[C@@H](NC(=O)[C@H](C)NC(=O)[C@H](CCCCN)NC(=O)[C@H](CO)NC(=O)[C@@H](NC(=O)CNC(=O)[C@H](CCCCN)NC(=O)CNC(=O)[C@H](CCSC)NC(=O)[C@H](Cc1ccc(O)cc1)NC(=O)[C@@H](N)CCCNC(N)=O)C(C)C)C(C)C)C(=O)N[C@@H](CC(N)=O)C(=O)O` [cit56] (H-[Cit]YMGKGVSKAVEHIN-OH; N-terminus and C-terminus assumed), the IC50 in assay [1] and in assay [2] was over 50 µM throughout. For the same compound, the “cytokine response in supernatants compared to the native peptide form” value in assay [3] was “strong responses”.
Take `CC(C)C[C@H](NC(=O)[C@@H]1CCCN1C(=O)[C@H](CC(N)=O)NC(=O)[C@H](CCCNC(=N)N)NC(=O)[C@H](Cc1ccccc1)NC(=O)[C@H](CC(N)=O)NC(=O)[C@H](CCCNC(=N)N)NC(=O)CNC(=O)[C@H](C)NC(=O)[C@H](Cc1ccccc1)NC(=O)[C@H](CCCCN)NC(=O)[C@H](C)NC(=O)[C@@H](N)CCCCN)C(=O)N[C@@H](C)C(=O)N[C@@H](CCCCN)C(=O)O` [peptide 420] (H-KAKFAGRNFRNPLAK-OH): the IC50 was 25 µM in assay [1], over 50 µM in assay [2] and over 50 µM in assay [4].
As for `CC[C@H](C)[C@H](NC(=O)[C@@H](N)C(C)C)C(=O)NCC(=O)N[C@@H](CCSC)C(=O)N[C@@H](CC(=O)O)C(=O)N[C@H](C(=O)N[C@@H](C)C(=O)N[C@@H](C)C(=O)N[C@@H](CO)C(=O)N[C@@H](CCC(=O)O)C(=O)N[C@@H](Cc1ccccc1)C(=O)N[C@@H](Cc1ccccc1)C(=O)N[C@@H](CCCNC(=N)N)C(=O)N[C@@H](CO)C(=O)NCC(=O)O)C(C)C` [compound 241] (H-VIGMDVAASEFFRSG-OH), the half-maximal inhibitory concentration (IC50) was found to be 0.5 µM in assay [1], 35 µM in assay [2] and 2 µM in assay [4].
Taken in the same sequence, the figures for `CC(C)C[C@H](NC(=O)CNC(=O)[C@H](CCCCN)NC(=O)[C@H](CO)NC(=O)[C@@H](N)[C@@H](C)O)C(=O)N[C@@H](Cc1ccccc1)C(=O)N[C@@H](CCCNC(=N)N)C(=O)N[C@@H](C)C(=O)N[C@@H](C)C(=O)N[C@H](C(=O)N1CCC[C@H]1C(=O)N[C@@H](CO)C(=O)NCC(=O)N[C@@H](C)C(=O)N[C@@H](CO)C(=O)O)C(C)C` [peptide 26] (H-TSKGLFRAAVPSGAS-OH) were 0.5 µM, 1.4 µM and 4 µM.
